Patent publication US20110183991A1, “5HT7 RECEPTOR LIGANDS AND COMPOSITIONS COMPRISING THE SAME” (LABORATORIOS DEL DR. ESTEVE, S.A., priority 2008, published 2011)
Read-outs that look alike come from different tables or passages of the source.

Target: T1, Cloned Human Serotonin Receptor, Subtype 7 (h5HT7), expressed in CHO cells (Homo sapiens, UniProt P34969)
T1 construct: purchased PerkinElmer 6120512; host or cells: CHO cells
Assay: Radioligand binding assay, [125I]LSD, cloned human 5HT7 receptor on Flashplate
Conditions: for inhibition at 1 µM: read-out: %-Inhib. (10^−6 M)
Experimental: The protocol assay was essentially the recommended protocol in the Technical Data Sheet by PerkinEmer Life and Analytical Sciences. The Mass membrane protein/well was typically 12 μg and the Receptor/well was about 9-10 fmoles. The Flashplate were let equilibrate at room temperature for one hour before the addition of the components of the assay mixture. The binding buffer was: 50 mM Tris-HCl, pH 7.4, containing 10 mM MgCl2, 0.5 mM EDTA and 0.5% BSA. […] Nonspecific binding was determined with 50 μM of Clozapine. The assay volume was 25 μl. TopSeal-A were applied onto Flashplate microplates and they were incubated at room temperature for 240 minutes in darkness.

[1] = compound at 10^−6 M, radioligand [125I]LSD 0.82 nM

T1 sequence (P34969 whole entry): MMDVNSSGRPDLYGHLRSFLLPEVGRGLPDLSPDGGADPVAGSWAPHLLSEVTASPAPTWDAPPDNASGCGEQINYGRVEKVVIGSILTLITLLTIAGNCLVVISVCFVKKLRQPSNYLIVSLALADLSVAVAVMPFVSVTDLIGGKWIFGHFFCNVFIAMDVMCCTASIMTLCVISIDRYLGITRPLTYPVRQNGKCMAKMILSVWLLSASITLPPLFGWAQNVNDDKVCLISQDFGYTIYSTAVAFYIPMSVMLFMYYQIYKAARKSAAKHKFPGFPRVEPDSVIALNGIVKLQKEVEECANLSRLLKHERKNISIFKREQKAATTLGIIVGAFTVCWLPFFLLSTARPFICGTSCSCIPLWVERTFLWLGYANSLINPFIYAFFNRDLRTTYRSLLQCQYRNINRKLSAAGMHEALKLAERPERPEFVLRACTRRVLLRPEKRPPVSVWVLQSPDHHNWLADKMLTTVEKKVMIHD

| SMILES | inhibition at 1 µM [1] [%] | IC50 (radioligand [125I]LSD 0.82 nM) [nM] | inhibition at 1 µM [%] | IC50 [nM] |
| --- | --- | --- | --- | --- |
| Cn1cc(CN2CCN(c3ccccc3)CC2)c2ccccc21 [Ex 1, 1-methyl-3-((4-phenylpiperazin-1-yl)methyl)-1H-indole] | 22.3 |  |  |  |
| Oc1cccc(N2CCN(Cc3ccc(OC(F)(F)F)cc3)CC2)c1 [Ex 2, 3-(4-(4-(trifluoromethoxy)benzyl)piperazin-1-yl)phenol] | 15.1 |  |  |  |
| c1ccc(OCCN2CCN(c3cccc4[nH]ccc34)CC2)cc1 [Ex 3, 4-(4-(2-phenoxyethyl)piperazin-1-yl)-1H-indole] | 53.7 | 1940 |  |  |
| Fc1cc2c(c(CN3CCN(C4CCc5ccccc5C4)CC3)c1)OCOC2 (stereo not drawn) [Ex 4, 1-((6-fluoro-4H-benzo[d][1,3]dioxin-8-yl)methyl)-4-(1,2,3,4-tetrahydronaphthalen-2-yl)piperazine] | 49 | 2330 |  |  |
| Cc1cc(NC(=O)CN2CCN(c3cccc4[nH]ccc34)CC2)n(C)n1 [Ex 5, 2-(4-(1H-indol-4-yl)piperazin-1-yl)-N-(1,3-dimethyl-1H-pyrazol-5-yl)acetamide] | 14.3 |  |  |  |
| CC[C@H](C)C(=O)N1CCN(Cc2cc(C(C)C)ccc2OC)CC1 [Ex 6, (S)-1-(4-(5-isopropyl-2-methoxybenzyl)piperazin-1-yl)-2-methylbutan-1-one] | 15 |  |  |  |
| N#CCCCN1CCN(c2cccc3[nH]ccc23)CC1 [Ex 7, 4-(4-(1H-indol-4-yl)piperazin-1-yl)butanenitrile] |  | 713 | 49.6 |  |
| COc1ccc(C(C)C)cc1CN1CCN(C(=O)c2ccsc2)CC1 [Ex 8, (4-(5-isopropyl-2-methoxybenzyl)piperazin-1-yl)(thiophen-3-yl)methanone] | 30.5 |  |  |  |
| COc1ccc(C(C)C)cc1CN1CCN(C(=O)c2ccc(Br)cc2)CC1 [Ex 9, (4-bromophenyl)(4-(5-isopropyl-2-methoxybenzyl)piperazin-1-yl)methanone] | 68.1 | 1790 |  |  |
| Cc1ccc(N2CCN(Cc3ccc(Cl)nc3)CC2)c(C)c1 [Ex 10, 1-((6-chloropyridin-3-yl)methyl)-4-(2,4-dimethylphenyl)piperazine] | 16.6 |  |  |  |
| COc1ccc(C(C)C)cc1CN1CCN(C(=O)Cc2c[nH]c3ccccc23)CC1 [Ex 11, 2-(1H-indol-3-yl)-1-(4-(5-isopropyl-2-methoxybenzyl)piperazin-1-yl)ethanone] |  |  | 16.3 |  |
| COc1ccc(CN2CCN(c3ccc(OC)c(OC)c3)CC2)c(OC)n1 [Ex 12, 1-(3,4-dimethoxyphenyl)-4-((2,6-dimethoxypyridin-3-yl)methyl)piperazine] | -0.3 |  |  |  |
| Cc1ccc(N2CCN(Cc3ccc(OC4CCCCO4)cc3)CC2)c(C)c1 (stereo not drawn) [Ex 13, 1-(2,4-dimethylphenyl)-4-(4-(tetrahydro-2H-pyran-2-yloxy)benzyl)piperazine] | 12.1 |  |  |  |
| FC(F)(F)c1cccc(N2CCN(Cc3cccnc3Nc3ccccc3)CC2)c1 [Ex 14, N-phenyl-3-((4-(3-(trifluoromethyl)phenyl)piperazin-1-yl)methyl)pyridin-2-amine] | 19.5 |  |  |  |
| COc1ccc(CN2CCN(c3ccccc3OC(C)C)CC2)c(OC)n1 [Ex 15, 1-((2,6-dimethoxypyridin-3-yl)methyl)-4-(2-isopropoxyphenyl)piperazine] |  |  | 92.2 | 82.2 |
| COc1ccc(CN2CCN(c3ccc(C)cc3C)CC2)c(OC)n1 [Ex 16, 1-((2,6-dimethoxypyridin-3-yl)methyl)-4-(2,4-dimethylphenyl)piperazine] | 8.8 |  |  |  |
| Cn1cc(CN2CCN(c3cccc(C(F)(F)F)c3)CC2)c(=O)n(C)c1=O [Ex 17, 1,3-dimethyl-5-((4-(3-(trifluoromethyl)phenyl)piperazin-1-yl)methyl)pyrimidine-2,4(1H,3H)-dione] | 28.5 |  |  |  |
| COc1ccc(CN2CCN(c3ccc(Cl)cc3)CC2)c(OC)n1 [Ex 18, 1-(4-chlorophenyl)-4-((2,6-dimethoxypyridin-3-yl)methyl)piperazine] | 12.3 |  |  |  |
| Clc1ccc(CN2CCN(c3cccc4[nH]ccc34)CC2)cn1 [Ex 25, 4-(4-((6-chloropyridin-3-yl)methyl)piperazin-1-yl)-1H-indole] |  |  | 66.8 | 328 |
| Fc1ccccc1CN1CCN(c2cccc3[nH]ccc23)CC1 [Ex 31, 4-(4-(2-fluorobenzyl)piperazin-1-yl)-1H-indole] |  | 460 | 82.6 |  |
| c1ccc2cc(CN3CCN(c4cccc5[nH]ccc45)CC3)ccc2c1 [Ex 32, 4-(4-(naphthalen-2-ylmethyl)piperazin-1-yl)-1H-indole] |  | 760 | 78.3 |  |
| Clc1ccccc1CN1CCN(c2cccc3[nH]ccc23)CC1 [Ex 33, 4-(4-(2-chlorobenzyl)piperazin-1-yl)-1H-indole] |  | 223 | 78.2 |  |
| Clc1ccc(CN2CCN(c3cccc4[nH]ccc34)CC2)cc1Cl [Ex 34, 4-(4-(3,4-dichlorobenzyl)piperazin-1-yl)-1H-indole] |  | 1240 | 54.7 |  |

Continued, in another order:

| inhibition at 1 µM [1] [%] | IC50 (radioligand [125I]LSD 0.82 nM) [nM] | SMILES | inhibition at 1 µM [%] | IC50 [nM] |
| --- | --- | --- | --- | --- |
| 59.5 | 1140 | c1cc(N2CCN(Cc3ccc(OC4CCCCO4)cc3)CC2)c2cc[nH]c2c1 (stereo not drawn) [Ex 19, 4-(4-(4-(tetrahydro-2H-pyran-2-yloxy)benzyl)piperazin-1-yl)-1H-indole] |  |  |
| 51.9 | 423 | Cc1cccc(-n2c(=O)c(CN3CCN(c4cccc5[nH]ccc45)CC3)cc3cccnc32)c1 [Ex 20, 3-((4-(1H-indol-4-yl)piperazin-1-yl)methyl)-1-m-tolyl-1,8-naphthyridin-2(1H)-one] |  |  |
| 9.4 |  | COc1ccc(CN2CCN(c3cccc(C(F)(F)F)c3)CC2)c(OC)n1 [Ex 21, 1-((2,6-dimethoxypyridin-3-yl)methyl)-4-(3-(trifluoromethyl)phenyl)piperazine] |  |  |
| 114 | 109 | COc1ccc(CN2CCN(c3cccc4[nH]ccc34)CC2)c(OC)n1 [Ex 22, 4-(4-((2,6-dimethoxypyridin-3-yl)methyl)piperazin-1-yl)-1H-indole] |  |  |
| 35.9 |  | COc1ccc(C(C)C)cc1CN1CCN(c2ccc(Cl)cc2)CC1 [Ex 23, 1-(4-chlorophenyl)-4-(5-isopropyl-2-methoxybenzyl)piperazine] |  |  |
| 41.6 |  | COc1ccc(C(C)C)cc1CN1CCN(c2ccc(C)cc2C)CC1 [Ex 24, 1-(2,4-dimethylphenyl)-4-(5-isopropyl-2-methoxybenzyl)piperazine] |  |  |
| -4.6 |  | O=[N+]([O-])c1ccc(N2CCN(Cc3cccnc3Nc3ccccc3)CC2)cc1 [Ex 26, 3-((4-(4-nitrophenyl)piperazin-1-yl)methyl)-N-phenylpyridin-2-amine] |  |  |
| 48.9 |  | COc1ccc(C(C)C)cc1CN1CCN(c2ncccn2)CC1 [Ex 27, 2-(4-(5-isopropyl-2-methoxybenzyl)piperazin-1-yl)pyrimidine] |  |  |
| 28.8 |  | c1ccc2[nH]c(CN3CCN(c4cccc5[nH]ccc45)CC3)nc2c1 [Ex 28, 2-((4-(1H-indol-4-yl)piperazin-1-yl)methyl)-1H-benzo[d]imidazole] |  |  |
| 83.1 | 339 | c1ccc(CN2CCN(c3cccc4[nH]ccc34)CC2)cc1 [Ex 30, 4-(4-benzylpiperazin-1-yl)-1H-indole] |  |  |
| 51.3 |  | Clc1ccc(CN2CCN(c3cccc4[nH]ccc34)CC2)c(Cl)c1 [Ex 35, 4-(4-(2,4-dichlorobenzyl)piperazin-1-yl)-1H-indole] |  |  |
